Measurements taken from patent US20060269482A1 (priority 2005, published 2006).
Where two headings read alike, the source gives them in different places.

How the values were obtained:
[1] = tested on: retinoblastoma protein (Rb) phosphorylation in MTLn3 cells; experiment: Rb phosphorylation in MTLn3 cells by Western blot; format: cell-based, rat; details: MTLn3, 20 hours, 0.17, 0.24 and 0.72 μM
Method: Cells were washed 3 times with cold PBS on ice and scraped from the flasks. All cells were collected in 15 ml tubes. Cells were pelleted by centrifugation and lysis buffer was added (1:1 PBS: 2× Tris-Glycine SDS Sample Buffer (Invitrogen, Carlsbad, Calif.) containing 5% 2-β mercaptoethanol). The volume of lysis buffer used was 5 ul per 1×10^6 cells. Samples were sonicated for 30 seconds on ice. Following sonication, samples were clarified by centrifugation at 16,000×g for 10 minutes at 4° C. and protein concentrations were determined using Non-Interfering Protein Assay Kit (Geno Technology Incorporated, Maplewood, Mo.). Proteins were denatured by boiling for 5 minutes and centrifuged as described above. […] For Western blotting, total Rb was detected using antibody from Pharmingen (BD Bioscience, San Diego, Calif.) at a dilution of 1:2000. The phosphorylation status of Rb at serine 780, serine 795 and serine 807/811 was detected with phosphospecific antibodies at dilutions of 1:1000 (Cell Signaling Technology, Beverly, Mass.).
Lysates were analyzed by Western blotting for Rb phosphorylation using polyclonal antibodies prepared against a peptide corresponding to sequences surrounding phosphorylated serine 807/811 in human Rb (FIG. 3).

[2] = Plasma and tumor exposures after a single oral dose; format: in vivo, rat
Method: Female Fischer rats obtained from Charles River Laboratories were used when they were ˜13-15 weeks old and weighed ˜150 grams. All animals were examined prior to the initiation of studies to ensure that they were healthy and acclimated to the laboratory environment. Autoclaved water and irradiated food were provided ad libitum, and the animals were maintained in a 12 hour light and dark cycle.
The test compound COMPOUND A, [4-amino-2-(1-methanesulfonylpiperidin-4-ylamino) pyrimidin-5-yl]-(2,3-difluoro-6-methoxyphenyl)methanone, was synthesized by Discovery Chemistry, Hoffmann-La Roche Inc. COMPOUND A was formulated as a suspension in 1% Klucel LF with 0.1% Tween 80 for oral injection. Compound was stored at 4° C. and vortexed immediately prior to administration.
The dose selected was 80 mg/kg, determined to be an efficacious dose in this animal model. Tumor growth inhibition in the MTLn3 xenograft model after 2 to 3 weeks of oral dosing at 80 mg/kg once weekly averaged 90% with 2/10 complete regressions. COMPOUND A was dosed on day 10 post implantation of cells, at which time the tumors were 100-200 mm^3 in size. In this pharmacokinetic/pharmacodynamic experiment, plasma and tumors were collected at 1, 2, 6, 24 and 72 hours post dosing of a single oral dose of COMPOUND A. Tumors were removed and immediately snap frozen in liquid nitrogen and stored at −80° C. until drug concentration analysis. Untreated and vehicle treated control groups were included in the analysis. Concentrations of COMPOUND A in plasma and tumors were determined in the same three animals per time point. Whole blood was also collected for analysis of Rb phosphorylation. Peripheral blood mononuclear cells (PBMCs) were isolated, stimulated ex vivo with mitogen and analyzed by Western blot as described below.
In a second pharmacodynamic study, plasma concentrations of COMPOUND A were similarly analyzed as described above, and Rb phosphorylation in both PBMCs and tumor xenografts treated with a single oral dose of COMPOUND A was examined.
After a single oral dose of 80 mg/kg, plasma and tumor tissues show a similar concentration time profile of COMPOUND A. Maximum concentrations in both plasma and tumor tissue were observed 1 hr post dose. The concentrations in the tumor samples taken from the same animals were approximately 50% of the plasma concentration and at 24 hrs tumor drug levels (164±28 ng/g) approximated plasma exposures at 24 hours (250±74 ng/ml) (FIG. 7). Drug levels in plasma and tumor tissue were measurable up to 24 hrs after dosing in all the animals in PD 664 (3 rats per time point). […] Overall the plasma data seem fairly predictive for tumor concentrations particularly since the extraction of drug from the tumor samples might be less than complete. No drug was detectable in the vehicle group.
Similarly in PD 675, after a single 80 mg/kg oral dose of COMPOUND A, drug was measurable in all the animals up to 6 hrs (339±88 ng/ml) and in ⅔ animals 24 hr and 48 hr after dosing. Mean plasma concentrations were steady from 1-24 hr. No drug was detectable in the vehicle group.

[3] = tested on: MTLn3 cells; experiment: cell growth inhibition in rat tumor cell line; format: cell-based
[4] = tested on: HCT116 cells; experiment: 5-day proliferation assay, cell growth inhibition; format: cell-based; details: Homo sapiens, HCT-116, 120 h; HCT116, 5-day proliferation assay
[5] = single oral dose 80 mg/kg, rat, PD 664

In the case of `COc1ccc(F)c(F)c1C(=O)c1cnc(NC2CCN(S(C)(=O)=O)CC2)nc1N` [COMPOUND A, [4-amino-2-(1-methanesulfonylpiperidin-4-ylamino)pyrimidin-5-yl]-(2,3-difluoro-6-methoxyphenyl)methanone], the “Rb phosphorylation at epitope recognized by anti-phospho-serine 807/811 antibody” value [1] is reported as “inhibition of phosphorylation”, the concentration at 6 h ([2]; female, Fischer, rat, plasma, single 80 mg/kg oral dose, PD 675, 6 hrs) is reported as 339 ± 88 ng/mL and the concentration at 24 h ([2]; female, Fischer, rat, plasma, single oral dose 80 mg/kg, 24 hours, PD 664, read-out: Plasma exposure at 24 hours) is reported as 250 ± 74 ng/mL. The concentration at 72 h ([2]; female, Fischer, rat, plasma, single oral dose 80 mg/kg, PD 664, one out of three animals measurable) was at least 12.5 ng/mL, the Kp ([2]; female, Fischer, rat, tumor / plasma, single oral dose 80 mg/kg, same animals, PD 664, read-out: Tumor concentration as percent of plasma concentration) was about 0.5 and the concentration at 24 h ([2]; female, Fischer, rat, tumor, single oral dose 80 mg/kg, 24 hrs, PD 664, read-out: Tumor drug level at 24 hrs) was 164 ± 28 ng/g. For the same compound, the “Time up to which drug levels in plasma and tumor tissue were measurable in all animals” value ([2]; single oral dose 80 mg/kg, PD 664, 3 rats per time point) was “up to 24 hrs”, the “Time of maximum concentration in plasma” value [2, 5] was 1 h and the “Time of maximum concentration in tumor tissue” value [2, 5] was 1 h. For the same compound, the IC50 [3] was 170 nM, the IC90 [3] was 240 nM and the IC50 [4] was 100 nM. For the same compound, the IC90 [4] was 200 nM.
